US6582351B1, “Imidazopyridinone derivatives and their use as phosphodiesterase inhibitors” (Fujisawa Pharmaceutical Co., Ltd., priority 1999, dated 2003)

SMILES | melting point [°C]
COC(=O)c1cnc2c(c1)n(Cc1ccc(OC)c(Cl)c1)c(=O)n2[C@H]1CC[C@H](O)CC1 [Example 2(98), 1-(3-Chloro-4-methoxybenzyl)-3-(trans-4-hydroxycyclohexyl)-6-methoxycarbonyl-2,3-dihydro-1H-imidazo[4,5-b]pyridin-2-one] | 146 to 148
COc1ccc(Cn2c(=O)n([C@H](C)CO)c3ncc(C#N)cc32)cc1Cl [Example 4(8), 1-(3-Chloro-4-methoxybenzyl)-6-cyano-3-((R)-2-hydroxy-1-methylethyl)-2,3-dihydro-1H-imidazo[4,5-b]pyridin-2-one] | 164 to 165
O=c1n(Cc2ccc(Cl)c(Cl)c2)c2cc(C(F)(F)F)cnc2n1[C@H]1CC[C@H](O)CC1 [Example 19(3), 1-(3,4-Dichlorobenzyl)-3-(trans-4-hydroxycyclohexyl)-6-trifluoromethyl-2,3-dihydro-1H-imidazo[4,5-b]pyridin-2-one] | 170 to 171.5
CCCCn1c(=O)n(Cc2ccc(OC)c(Cl)c2)c2cc(C(F)(F)F)ccc21 [Example 2(36), 1-Butyl-3-(3-chloro-4-methoxybenzyl)-5-trifluoromethyl-2,3-dihydro-1H-benzimidazol-2-one] | 122 to 124
COc1ccc(Cn2c(=O)n(C(C)(C)CO)c3ncc(C(F)(F)F)cc32)cc1Cl [Example 3, 1-(3-chloro-4-methoxybenzyl)-3-(1,1-dimethyl-2-hydroxyethyl)-6-trifluoromethyl-2,3-dihydro-1H-imidazo[4,5-b]pyridin-2-one] | 195 to 197
COc1ccc(Cn2c(=O)n([C@H]3CCN(C(=O)OC(C)(C)C)C3)c3ccc(C(F)(F)F)cc32)cc1Cl [Example 2(19), 1-((S)-1-tert-Butoxycarbonylpyrrolidin-3-yl)-3-(3-chloro-4-methoxybenzyl)-5-trifluoromethyl-2,3-dihydro-1H-benzimidazol-2-one] | 157 to 157.5
COc1ccc(Cn2c(=O)n(C(C)(C)C)c3ccc(C(F)(F)F)cc32)cc1Cl [Example 2(32), 1-(tert-Butyl)-3-(3-chloro-4-methoxybenzyl)-5-trifluoromethyl-2,3-dihydro-1H-benzimidazol-2-one] | 130.5 to 131.5
COc1ccc(Cn2c(=O)n([C@H]3CC[C@H](O)CC3)c3ccc(C(F)(F)F)cc32)cc1Br [Example 2(31), 3-(3-Bromo-4-methoxybenzyl)-1-(trans-4-hydroxycyclohexyl)-5-trifluoromethyl-2,3-dihydro-1H-benzimidazol-2-one] | 182 to 182.5
COc1ccc(Cn2c(=O)n(-c3ccc4nc[nH]c4c3)c3ncc(C#N)cc32)cc1Cl [Example 2(104), 3-(Benzimidazol-5-yl)-1-(3-chloro-4-methoxybenzyl)-6-cyano-2,3-dihydro-1H-imidazo[4,5-b]pyridin-2-one] | 163 to 166
COc1ccc(Cn2c(=O)n([C@H]3CC[C@H](O)CC3)c3ccc(C(F)(F)F)cc32)cc1OC [Example 1, 3-(3,4-dimethoxybenzyl)-1-(trans-4-hydroxycyclohexyl)-5-trifluoromethyl-2,3-dihydro-1H-benzimidazol-2-one] | 108 to 110
COc1ccc(Cn2c(=O)n(CCO)c3ccc(C(F)(F)F)cc32)cc1Cl [Example 4(7), 3-(3-Chloro-4-methoxybenzyl)-1-(2-hydroxyethyl)-5-trifluoromethyl-2,3-dihydro-1H-benzimidazol-2-one] | 106 to 107
COc1ccc2c(c1)n(Cc1ccc(OC)c(OC)c1)c(=O)n2[C@H]1CC[C@H](O)CC1 [Example 2(11), 3-(3,4-Dimethoxybenzyl)-1-(trans-4-hydroxycyclohexyl)-5-methoxy-2,3-dihydro-1H-benzimidazol-2-one] | 176 to 177
COc1ccc(Cn2c(=O)n([C@H]3CC[C@H](O)CC3)c3ncc(C#N)cc32)cc1Br [Example 2(100), 1-(3-Bromo-4-methoxybenzyl)-6-cyano-3-(trans-4-hydroxycyclohexyl)-2,3-dihydro-1H-imidazo[4,5-b]pyridin-2-one] | 114 to 116
COc1ccc(Cn2c(=O)n(-c3ccc4[nH]ccc4c3)c3ncc(C#N)cc32)cc1Cl [Example 2(105), 1-(3-Chloro-4-methoxybenzyl)-3-(1H-indol-5-yl)-6-cyano-2,3-dihydro-1H-imidazo[4,5-b]pyridin-2-one] | 281 to 282
COc1ccc(Cn2c(=O)n([C@H]3CC[C@H](O)CC3)c3ccc(S(C)(=O)=O)cc32)cc1Cl [Example 4(3), 3-(3-Chloro-4-methoxybenzyl)-1-(trans-4-hydroxycyclohexyl)-5-methylsulfonyl-2,3-dihydro-1H-benzimidazol-2-one] | 265 to 265.5
COc1ccc(Cn2c(=O)n([C@H]3CCN(C(=O)OC(C)(C)C)C3)c3ccc(C(F)(F)F)cc32)cc1OC [Example 2(18), 1-((S)-1-tert-Butoxycarbonylpyrrolidin-3-yl)-3-(3,4-dimethoxybenzyl)-5-trifluoromethyl-2,3-dihydro-1H-benzimidazol-2-one] | 122 to 122.5

SMILES | melting point [°C]
COc1ccc(Cn2c(=O)n([C@H]3CC[C@H](O)CC3)c3ccc(Cl)cc32)cc1OC [Example 2(9), 5-Chloro-3-(3,4-dimethoxybenzyl)-1-(trans-4-hydroxycyclohexyl)-2,3-dihydro-1H-benzimidazol-2-one] | 166 to 167
COc1ccc(Cn2c(=O)n(C(C)C)c3ccc(C(F)(F)F)cc32)cc1Cl [Example 2(35), 3-(3-Chloro-4-methoxybenzyl)-1-isopropyl-5-trifluoromethyl-2,3-dihydro-1H-benzimidazol-2-one] | 153.5 to 155
COc1ccc(Cn2c(=O)n(C3CCCC3)c3ncc(C(F)(F)F)cc32)cc1Cl [Example 2(17), 1-(3-Chloro-4-methoxybenzyl)-3-cyclopentyl-6-trifluoromethyl-2,3-dihydro-1H-imidazo[4,5-b]pyridin-2-one] | 156 to 157
COc1ccc(Cn2c(=O)n([C@H]3CC[C@H](O)CC3)c3ncc(C#N)cc32)cc1C [Example 2(101), 6-Cyano-3-(trans-4-hydroxycyclohexyl)-1-(4-methoxy-3-methylbenzyl)-2,3-dihydro-1H-imidazo[4,5-b]pyridin-2-one] | 168 to 169
COc1ccc(Cn2c(=O)n([C@H]3CC[C@H](O)CC3)c3ccc(C)cc32)cc1OC [Example 19(4), 3-(3,4-Dimethoxybenzyl)-1-(trans-4-hydroxycyclohexyl)-5-methyl-2,3-dihydro-1H-benzimidazol-2-one] | 174 to 175
COc1ccc(Cn2c(=O)n([C@H]3CC[C@H](O)CC3)c3ccc(C(=O)O)cc32)cc1Cl [Example 19(5), 5-Carboxy-3-(3-chloro-4-methoxybenzyl)-1-(trans-4-hydroxycyclohexyl)-2,3-dihydro-1H-benzimidazol-2-one] | 275 to 276
COc1ccc(Cn2c(=O)n([C@H]3CC[C@H](O)CC3)c3ccc([N+](=O)[O-])cc32)cc1Cl [Example 2(16), 3-(3-Chloro-4-methoxybenzyl)-1-(trans-4-hydroxycyclohexyl)-5-nitro-2,3-dihydro-1H-benzimidazol-2-one] | 142 to 142.5
COC(=O)c1ccc2c(c1)n(Cc1ccc(OC)c(Cl)c1)c(=O)n2[C@H]1CC[C@H](O)CC1 [Example 2(27), 3-(3-Chloro-4-methoxybenzyl)-1-(trans-4-hydroxycyclohexyl)-5-methoxycarbonyl-2,3-dihydro-1H-benzimidazol-2-one] | 174 to 175
COc1ccc(Cn2c(=O)n([C@H]3CC[C@H](O)CC3)c3ncc(C(=O)O)cc32)cc1Cl [Example 19(25), 6-Carboxy-1-(3-chloro-4-methoxybenzyl)-3-(trans-4-hydroxycyclohexyl)-2,3-dihydro-1H-imidazo[4,5-b]pyridin-2-one] | 262 to 262.5
COc1c(Cl)cc(Cn2c(=O)n([C@H]3CC[C@H](O)CC3)c3ccc([N+](=O)[O-])cc32)cc1Cl [Example 2(26), 3-(3,5-Dichloro-4-methoxybenzyl)-1-(trans-4-hydroxycyclohexyl)-5-nitro-2,3-dihydro-1H-benzimidazol-2-one] | 115 to 116
COc1ccc(Cn2c(=O)n([C@H]3CC[C@H](O)CC3)c3ccc(C(=O)c4ccccc4)cc32)cc1Cl [Example 4(6), 5-Benzoyl-3-(3-chloro-4-methoxybenzyl)-1-(trans-4-hydroxycyclohexyl)-2,3-dihydro-1H-benzimidazol-2-one] | 160.5 to 162
COc1ccc(Cn2c(=O)n([C@H]3CC[C@H](O)CC3)c3ncc(C(=O)NCc4cccnc4)cc32)cc1Cl [Example 21(2), 1-(3-Chloro-4-methoxybenzyl)-6-(3-picolylcarbamoyl)-3-(trans-4-hydroxycyclohexyl)-2,3-dihydro-1H-imidazo[4,5-b]pyridin-2-one] | 134 to 135
COc1ccc(Cn2c(=O)n([C@H]3CC[C@H](O)CC3)c3ncc(C(F)(F)F)cc32)cc1Cl [Example 19(2), 1-(3-Chloro-4-methoxybenzyl)-3-(trans-4-hydroxycyclohexyl)-6-trifluoromethyl-2,3-dihydro-1H-imidazo[4,5-b]pyridin-2-one] | 121 to 123
COc1ccc(Cn2c(=O)n([C@H](C)CO)c3ccc(C(F)(F)F)cc32)cc1Cl [Example 4(4), 3-(3-Chloro-4-methoxybenzyl)-1-((R)-2-hydroxy-1-methylethyl)-5-trifluoromethyl-2,3-dihydro-1H-benzimidazol-2-one] | 108 to 109
COc1ccc(Cn2c(=O)n([C@H]3CC[C@H](O)CC3)c3ncc(C#N)cc32)cc1C#N [Example 2(102), 6-Cyano-1-(3-cyano-4-methoxybenzyl)-3-(trans-4-hydroxycyclohexyl)-2,3-dihydro-1H-imidazo[4,5-b]pyridin-2-one] | 133 to 134
COc1ccc(Cn2c(=O)n(C3CCOCC3)c3ccc(C(F)(F)F)cc32)cc1Cl [Example 2(34), 3-(3-Chloro-4-methoxybenzyl)-1-(tetrahydro-4H-pyran-4-yl)-5-trifluoromethyl-2,3-dihydro-1H-benzimidazol-2-one] | 175 to 176
